Source: publication PMC5507595 (Free radical biology & medicine, 2017)

Biological target: protein disulfide isomerase (PDI) (Homo sapiens, UniProt P07237)
Assay: absorbance titration of MNS with reduced PDI
Format: binding

Sequence of protein disulfide isomerase (PDI) (P07237 18-508): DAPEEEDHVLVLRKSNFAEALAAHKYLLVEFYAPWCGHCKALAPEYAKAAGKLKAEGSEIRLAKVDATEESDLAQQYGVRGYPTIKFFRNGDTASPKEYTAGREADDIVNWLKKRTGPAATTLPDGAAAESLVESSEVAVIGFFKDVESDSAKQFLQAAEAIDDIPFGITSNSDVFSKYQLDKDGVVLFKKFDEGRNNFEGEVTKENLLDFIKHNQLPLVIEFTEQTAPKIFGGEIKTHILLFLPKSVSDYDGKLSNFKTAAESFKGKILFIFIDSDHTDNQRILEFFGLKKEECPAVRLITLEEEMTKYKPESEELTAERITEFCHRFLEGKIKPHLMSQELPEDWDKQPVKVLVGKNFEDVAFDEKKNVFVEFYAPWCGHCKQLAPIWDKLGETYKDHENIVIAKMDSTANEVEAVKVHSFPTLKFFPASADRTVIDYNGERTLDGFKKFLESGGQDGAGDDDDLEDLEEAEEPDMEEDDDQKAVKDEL

Structure (SMILES): O=[N+]([O-])C=Cc1ccc2c(c1)OCO2 [3,4-methylenedioxy-β-nitrostyrene]
- Kd: low micromolar
